In PubChem BioAssay AID248 (DTP/NCI, 2004):
“And” between values parts separate entries of the source, which are not always exact repeats. Equal entries are not always repeated. Toxic doses and inconclusive results are not listed. Rule as the data show it: active = T/C of 150% or more; inactive = T/C below 125%.

Test system: L1210 leukemia ip in BDF1 mice, survival T/C
Assay: NCI In Vivo Anticancer Drug Screen. Data for tumor model L1210 Leukemia (intraperitoneal) in B6D2F1 (BDF1) mice
Conditions: endpoint: mean survival time, higher = longer survival
How it was run: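 Transplanted-tumor mice were given test agent; controls received vehicle only. Survival readings from the two groups were divided (treated over control).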

[1] = dose: 100.0 mg/kg/injection, schedule: Q01DX001 (ip), vehicle: carboxymethylcellulose (CMC)
[2] = dose: 400.0 mg/kg/injection, schedule: Q01DX001 (ip), vehicle: carboxymethylcellulose (CMC)
[3] = dose: 200.0 mg/kg/injection, schedule: Q01DX001 (ip), vehicle: carboxymethylcellulose (CMC)
[4] = dose: 100.0 mg/kg/injection, schedule: Q01DX009 (ip), vehicle: Klucel (hydroxypropylcellulose) (HPC)
[5] = dose: 200.0 mg/kg/injection, schedule: Q01DX009 (ip), vehicle: Klucel (hydroxypropylcellulose) (HPC)
[6] = dose: 400.0 mg/kg/injection, schedule: Q01DX009 (ip), vehicle: Klucel (hydroxypropylcellulose) (HPC)
[7] = dose: 100.0 mg/kg/injection, schedule: Q04DX003 (ip), vehicle: Klucel (hydroxypropylcellulose) (HPC)
[8] = dose: 200.0 mg/kg/injection, schedule: Q04DX003 (ip), vehicle: Klucel (hydroxypropylcellulose) (HPC)
[9] = dose: 400.0 mg/kg/injection, schedule: Q04DX003 (ip), vehicle: Klucel (hydroxypropylcellulose) (HPC)

Measured: T/C

CCCCCCCCCCCCCCCNC1=C(OC)C(=O)C(NCCCCCCCCCCCCCCC)=C(OC)C1=O
inactive: dose: 100.0 mg/kg/injection, schedule: Q01DX001 (ip), vehicle: other 90 % of control | dose: 200.0 mg/kg/injection, schedule: Q01DX001 (ip), vehicle: other 93 % of control | dose: 400.0 mg/kg/injection, schedule: Q01DX001 (ip), vehicle: other 96 % of control

CC(C)(CCCC(C)(C)[N+](=O)[O-])[N+](=O)[O-]
inactive: dose: 100.0 mg/kg/injection, schedule: Q01DX001 (ip), vehicle: saline with Tween-80 101 % of control | dose: 200.0 mg/kg/injection, schedule: Q01DX001 (ip), vehicle: saline with Tween-80 94 % of control | dose: 400.0 mg/kg/injection, schedule: Q01DX001 (ip), vehicle: saline with Tween-80 101 % of control

Cc1ccc(C2=CCCCC2)cc1
inactive: dose: 50.0 mg/kg/injection, schedule: Q01DX001 (ip), vehicle: carboxymethylcellulose (CMC) 96 % of control | [1] 96 % of control | [2] 94 % of control

COc1ccc(C(C)=O)cc1CCC=O
inactive: [1] 97 % of control | [3] 97 % of control | [2] 97 % of control

COc1ccc(C)cc1NC(=O)Nc1ccccc1C(F)(F)F
inactive: [4] 89 % of control | [5] 91 % of control | [6] 100 % of control

O=C(N/N=C/c1ccc(Cl)cc1)Nc1ccccc1
inactive: [4] 90 % of control | [5] 96 % of control

c1ccc2c(c1)c(N1CCOCC1)nn1nnnc21
inactive: dose: 37.5 mg/kg/injection, schedule: Q04DX003 (ip), vehicle: saline 101 % of control | dose: 75.0 mg/kg/injection, schedule: Q04DX003 (ip), vehicle: saline 98 % of control | dose: 150.0 mg/kg/injection, schedule: Q04DX003 (ip), vehicle: saline 98 % of control

CCN1C(/C=C/c2ccc(O)c3ncccc23)CCC2CC(C)CCC21 (stereo unspecified)
inactive: dose: 75.0 mg/kg/injection, schedule: Q01DX001 (ip), vehicle: saline 117 % of control | dose: 150.0 mg/kg/injection, schedule: Q01DX001 (ip), vehicle: saline 119 % of control | dose: 300.0 mg/kg/injection, schedule: Q01DX001 (ip), vehicle: saline 120 % of control

CC(=O)/C(C)=C/C=O
inactive: dose: 0.78 mg/kg/injection, schedule: Q01DX009 (ip), vehicle: water 100 % of control | dose: 1.56 mg/kg/injection, schedule: Q01DX009 (ip), vehicle: water 102 % of control | dose: 3.12 mg/kg/injection, schedule: Q01DX009 (ip), vehicle: water 94 % of control | dose: 3.12 mg/kg/injection, schedule: Q04DX003 (ip), vehicle: water 95 % of control | dose: 6.25 mg/kg/injection, schedule: Q01DX009 (ip), vehicle: water 102 % of control | dose: 6.25 mg/kg/injection, schedule: Q04DX003 (ip), vehicle: water 101 % of control | dose: 12.5 mg/kg/injection, schedule: Q01DX009 (ip), vehicle: water 107 % of control | dose: 12.5 mg/kg/injection, schedule: Q04DX003 (ip), vehicle: water 100 % of control and 101 % of control

OCc1ccccc1CO
inactive: [1] 95 % of control | [3] 95 % of control | [2] 98 % of control

CC(O)C(O)C(=O)NN (stereo unspecified)
inactive: dose: 50.0 mg/kg/injection, schedule: Q01DX009 (ip), vehicle: saline 91 % of control | dose: 100.0 mg/kg/injection, schedule: Q01DX009 (ip), vehicle: saline 98 % of control | dose: 200.0 mg/kg/injection, schedule: Q01DX009 (ip), vehicle: saline 98 % of control

O=C(NCCCl)NC1CCCCCCCCCCC1
inactive: [4] 98 % of control | [7] 100 % of control | [5] 97 % of control | [8] 102 % of control | [6] 89 % of control | [9] 102 % of control

O=NN(CC(=O)O)c1ccc2ccccc2c1
inactive: dose: 100.0 mg/kg/injection, schedule: Q04DX002 (ip), vehicle: saline with Tween-80 90 % of control | dose: 200.0 mg/kg/injection, schedule: Q04DX002 (ip), vehicle: saline with Tween-80 90 % of control | dose: 400.0 mg/kg/injection, schedule: Q04DX002 (ip), vehicle: saline with Tween-80 93 % of control

CCN=C(c1ccc(NC(=O)c2ccc(C(=O)Nc3ccc(C(=NCC)N(CC)CC)cc3)c(Cl)c2)cc1)N(CC)CC
inactive: dose: 0.94 mg/kg/injection, schedule: Q01DX Z (ip), vehicle: carboxymethylcellulose (CMC) 94 % of control

NCCC1CCCCN1 (stereo unspecified)
inactive: dose: 100.0 mg/kg/injection, schedule: Q04DX003 (ip), vehicle: acetone 108 % of control | dose: 150.0 mg/kg/injection, schedule: Q01DX009 (ip), vehicle: saline 117 % of control | dose: 225.0 mg/kg/injection, schedule: Q01DX009 (ip), vehicle: saline 101 % of control | dose: 335.0 mg/kg/injection, schedule: Q01DX009 (ip), vehicle: saline 110 % of control

Cn1cc(Cl)nc1CO
inactive: dose: 100.0 mg/kg/injection, schedule: Q01DX009 (ip), vehicle: saline sonified 91 % of control | dose: 100.0 mg/kg/injection, schedule: Q04DX003 (ip), vehicle: saline 91 % of control | dose: 200.0 mg/kg/injection, schedule: Q01DX009 (ip), vehicle: saline sonified 102 % of control | dose: 200.0 mg/kg/injection, schedule: Q04DX003 (ip), vehicle: saline 107 % of control | dose: 400.0 mg/kg/injection, schedule: Q01DX009 (ip), vehicle: saline sonified 93 % of control | dose: 400.0 mg/kg/injection, schedule: Q04DX003 (ip), vehicle: saline 102 % of control

NC(N)=Nc1ccc(NC(=O)c2ccc(C(=O)Nc3ccc(N=C(N)N)cc3)cc2)cc1
inactive: dose: 1.8 mg/kg/injection, schedule: Q01DX Z (ip), vehicle: carboxymethylcellulose (CMC) 122 % of control | dose: 3.7 mg/kg/injection, schedule: Q01DX Z (ip), vehicle: carboxymethylcellulose (CMC) 104 % of control | dose: 7.5 mg/kg/injection, schedule: Q01DX Z (ip), vehicle: carboxymethylcellulose (CMC) 88 % of control

CCC(=O)Nc1cccc(OC(=O)N(C)C)c1
inactive: dose: 100.0 mg/kg/injection, schedule: Q04DX003 (ip), vehicle: saline with Tween-80 100 % of control | dose: 200.0 mg/kg/injection, schedule: Q04DX003 (ip), vehicle: saline with Tween-80 98 % of control | dose: 400.0 mg/kg/injection, schedule: Q04DX003 (ip), vehicle: saline with Tween-80 100 % of control

c1ccc2c(c1)[nH]c1cc3ccncc3cc12
inactive: dose: 50.0 mg/kg/injection, schedule: Q01DX001 (ip), vehicle: saline 100 % of control | dose: 100.0 mg/kg/injection, schedule: Q01DX001 (ip), vehicle: Klucel (hydroxypropylcellulose) (HPC) 94 % of control | dose: 100.0 mg/kg/injection, schedule: Q01DX001 (ip), vehicle: saline 94 % of control | [7] 93 % of control | dose: 200.0 mg/kg/injection, schedule: Q01DX001 (ip), vehicle: Klucel (hydroxypropylcellulose) (HPC) 96 % of control | dose: 200.0 mg/kg/injection, schedule: Q01DX001 (ip), vehicle: saline 98 % of control | [8] 93 % of control | dose: 400.0 mg/kg/injection, schedule: Q01DX001 (ip), vehicle: Klucel (hydroxypropylcellulose) (HPC) 92 % of control | dose: 400.0 mg/kg/injection, schedule: Q01DX001 (ip), vehicle: saline 96 % of control | [9] 91 % of control

O=C1CCCCCC2CC12 (stereo unspecified)
inactive: dose: 100.0 mg/kg/injection, schedule: Q04DX002 (sc), vehicle: olive oil, sesame oil, peanut oil 105 % of control | dose: 200.0 mg/kg/injection, schedule: Q04DX002 (sc), vehicle: olive oil, sesame oil, peanut oil 112 % of control | dose: 400.0 mg/kg/injection, schedule: Q04DX002 (sc), vehicle: olive oil, sesame oil, peanut oil 109 % of control
